Assay results as given in US11224565B2, “N-acyldipeptide derivatives and their uses” (NeoStrata Company, Inc., priority 2011, dated 2022).
Peptide text beside a SMILES is read from it.

How the values were obtained:
muscle strength = assay: Pushup performance after topical application to upper chest; type: in vivo, human; details: 0.5% (w/v) in WEP442 pH 6.9 on upper chest about 30 minutes before exercise; routinely about 100
Procedure: A subject, performed pushups routinely with a maximal number of about 100 in one hour. The subject topically applied 0.5% (w/v) N—Ac-L-Tyr-L-Tyr-NH2 in WEP442, pH 6.9 solution as prepared in Example 5 to ease the tight muscles on the upper chest about 30 minutes before the exercise. The subject was surprised to find that after the topical application they could now perform pushups with a maximal number of about 200 in one hour without feeling tired. The subject repeated the performance next day with the same enhanced result. To make sure that the enhanced effect on the muscles was not due to the vehicle solution, in the following day the subject topically applied WEP442 solution to the same upper chest about 30 minutes before the exercise. This time the subject could not perform the same number of pushups as before.

[1] = test system: near-sightedness (myopia); assay: Topical application around the eyes, eye vision (myopia); type: in vivo, human; details: person
Excerpt: Typical examples of improving eye vision are described as follows.
Each time their vision in both eyes got worse, and they required changes in contact lenses in past years. This time, 6 weeks before their checkup, the subject topically applied twice daily 0.5% (w/v) N—Ac-L-Tyr-L-Tyr-NH2 in WEP442, pH 6.7 (Example 5) on the skin around and outside of eye areas and periorbital regions for 6 weeks.
Each time their vision in both eyes worsened, and they required changes in the prescription for their contact lenses in the past years. This time, one month before their checkup, the subject topically applied once daily 0.5% (w/v) N—Ac-L-Tyr-L-Tyr-NH2 in WEP442, pH 6.7 (Example 5) on the skin around and outside of eye areas and periorbital regions for 4 weeks.

varicose veins = assay: Topical treatment of varicose veins; type: in vivo, human; details: 0.5% (w/v) in WEP442 topically twice daily, right lower leg, end of four weeks
Excerpt: A subject had multiple varicose veins in their right lower leg for many years resistant to any kind of topical treatments including high potency alpha-hydroxyacids. The lesions of varicose veins covered an area of skin measuring 5 cm×10 cm and appeared more prominent with advancing age. The subject topically applied twice daily 0.5% (w/v) N—Ac-L-Tyr-L-Tyr-NH2 in WEP442 solution as prepared in Example 5. […] It is believed that continued topical application will eradicate the varicose veins.

sweating of underarm = assay: Topical application to underarm, perspiration; type: in vivo, human; details: 0.5% (w/v) in WEP442 pH 6.7 after shower
Excerpt: A subject, routinely took a shower every morning, then topically applied a conventional antiperspirant product on the underarm skin to prevent perspiration. To test the efficacy of the N-acyldipeptide derivative of the present invention, the subject after the shower, topically applied 0.5% (w/v) N—Ac-L-Tyr-L-Tyr-NH2 in WEP442, pH 6.7 (Example 5) on the left underarm and a control vehicle WEP442 on the right underarm. After two hours, there was profuse sweating in the right underarm as evidenced by the wet shirt in the armpit area. In contrast, there was no sweating in the left underarm as shown by the dry shirt in the armpit area. The left underarm was dry for the next 6-8 hours.

[2] = test system: interleukin-6 (IL-6) in THP-1 leukemia cells; assay: In vitro screen for anti-inflammatory effects: angiocidin-induced IL-6 in THP-1 cells (ELISA); type: cell-based, human; details: 100 μg/ml for 24 hours, then angiocidin 10 μg/ml for 24 hours
Procedure: A typical in vitro screen for anti-inflammatory effects was carried out as follows.
THP-1 leukemia cells (monocytic leukemic human cell line) were cultured and either untreated or treated with a bioactive dipeptide derivative (100 μg/ml) of the present invention for 24 hours. The untreated or treated leukemia cells were then treated with angiocidin (10 μg/ml) for 24 hours to induce interleukin-6 (IL-6) which was an indicator of the inflammation. The induced IL-6 was measured quantitatively by ELISA (enzyme-linked immunosorbent assay). […] Therefore, the bioactive dipeptide derivatives of the present invention, such as N—Ac-L-Val-L-Ala-NH2, have the potential use as nonsteroidal anti-inflammatory substances.

[3] = test system: skin cut with an open wound; assay: Topical treatment of skin wound; type: in vivo, human; details: 0.5% (w/w) cream twice daily on 2 cm open wound
Excerpt: The subject topically applied twice daily 0.5% (w/w) N—Ac-L-Val-L-Ala-NH2 cream as formulated in Example 2 on the wound. […] At the end of 5 days, the wound had healed nearly completely, and treated skin appeared normal without any signs of scar formation. The wound had 95-100% improvement as judged by clinical evaluation.

[4] = test system: osteoarthritis of both knees; assay: Intra-articular injections in knee osteoarthritis; type: in vivo, human
Procedure: Bioactive dipeptide derivative of the present invention as potential treatment of knee osteoarthritis by intra-articular injections.
A subject had severe osteoarthritis of both knees for four and half years. Prior therapy had included intra-articular injections of corticosteroids and hyaluronic acid as well as celecoxib (Celebrex) orally (200 mg) twice daily. Such therapy had provided only mild transitory relief of knee pain and edema, and edema of lower legs.
Intra-articular injections of 0.2% (w/v) N—Ac-L-Val-L-Ala-NH2 in water, 1 ml (2 mg) as prepared in Example 22 were administered to each knee. The pains in both knees disappeared 10-15 minutes after the injections, and the relief of pains lasted for 24 hours. Edema and inflammation of the knees and lower legs had diminished for approximately the same 24 hour period. Repeat injections of the same composition were administered once a week for five weeks to provide continued relief of pain, edema and inflammation.
In another trial, intra-articular injections of 0.2% (w/v) N—Ac-L-Val-L-Ala-NH2 with 1% (w/v) methyl cellulose in water, 0.4 ml (0.8 mg) as prepared in Example 22 were also administered to each knee at different times. The pains in both knees disappeared 10-15 minutes after the injections, and the relief of pains lasted for 24 hours. Edema and inflammation of the knees and lower legs had diminished for approximately the same 24 hour period.
In yet another embodiment, the volunteer subject injected intra-articularly into a knee joint a test composition containing a bioactive dipeptide derivative of the present invention to improve and reduce arthritic inflammation and pain of the joint.

[5] = 0.2% (w/v) in water, 1 ml (2 mg) intra-articular per knee
[6] = 0.2% (w/v) with 1% (w/v) methyl cellulose in water, 0.4 ml (0.8 mg) intra-articular per knee

SMILES	maximal number of pushups in one hour (muscle strength)	vision in both eyes at yearly checkup ([1]; 0.5% (w/v) in WEP442 pH 6.7 once daily on skin around eyes for 4 weeks)	vision in both eyes at yearly checkup ([1]; 0.5% (w/v) in WEP442 pH 6.7 twice daily on skin around eyes for 6 weeks)	appearance of varicose vein lesions (varicose veins)	time the treated underarm stayed dry (sweating of underarm)	sweating of treated left underarm (sweating of underarm; after two hours, vehicle underarm profuse sweating)	inhibition of the production of IL-6 [2]	improvement of wound as judged by clinical evaluation ([3]; end of 5 days)	wound pain after topical application ([3]; left leg)	duration of relief of pains [4, 5]	period of diminished edema and inflammation of knees and lower legs [4, 5]	time after injection until pains in both knees disappeared [4, 5]	duration of relief of pains [4, 6]	period of diminished edema and inflammation of knees and lower legs [4, 6]	time after injection until pains in both knees disappeared [4, 6]
CC(=O)N[C@@H](Cc1ccc(O)cc1)C(=O)N[C@@H](Cc1ccc(O)cc1)C(N)=O [N-Ac-L-Tyr-L-Tyr-NH2] (Ac-Tyr-Tyr-NH2)	about 200	did not worsen	did not worsen	appeared less prominent	6 to 8 h	no sweating	–	–	–	–	–	–	–	–	–
CC(=O)N[C@H](C(=O)N[C@@H](C)C(N)=O)C(C)C [N-Ac-L-Val-L-Ala-NH2] (Ac-Val-Ala-NH2)	–	–	–	–	–	–	approximately 70%	95-100%	stopped within a few minutes	24 h	~24 h	10 to 15 min	24 h	~24 h	10 to 15 min
